This is an account of results in patent publication US20200397807A1, “NICOTINYL RIBOSIDE COMPOUNDS AND THEIR USES” (MitoPower, LLC, priority 2019, published 2020).

Counter-ions that a name gives are not always drawn. Like-named read-outs stand apart in the source and are kept apart here.

For data set [1], the system named is HepG2 cells. Nature of the data set: MNNG-induced cytotoxicity / cytoprotection (CellTiter-Blue Cell Viability Assay). It is filed as cell-based. Particulars: MNNG 600 μM, compound 1 mM. (The colour change of resazurin is a common sign of viable cells or microbes.)
Data set [2] concerns HepG2 cells. Nature of the data set: Total cellular NAD^+ level after MNNG-induced depletion (NAD/NADH Glo assay). It is filed as cell-based. Particulars: MNNG 100 μM, compound 1 mM.
Data set [3] deals with Jurkat cells. Particulars: MNNG 100 μM, compound 1 mM.
For data set [4], the system named is Jurkat cells. Nature of the data set: Total cellular NAD^+ level after MNNG-induced depletion (NAD/NADH Glo assay). In kind it is cell-based. To be noted: for % NAD^+ Repletion: MNNG 100 μM, compound 1 mM; for increase of NAD^+ level: 100 μM MNNG 30 min, wash, NR 100 μM or/and olaparib 5 nM 3.5 hr.
Data set [5] has as its system HepG2 cells. The data set is described as follows: Glucose concentration in the media. In kind it is cell-based.
Data set [6] has as its system Jurkat cells. The data set is described as follows: NAD^+ assay (total cellular NAD^+ by HPLC/LCMS), with or without MNNG. Particulars: Jurkat not treated with MNNG; NRH vs. NR 100 μM; 4 hr.
Data set [7] relates to HepG2 cells. Nature of the data set: Lactate released into the media. It is filed as cell-based.
Data set [8] concerns HepG2 cells.
For data set [9] the following is noted: led to fatally high body temperature; cited from earlier work.
The subject of data set [10] is HepG2 cells. The source holds these as a separate data set.
The conditions of data set [11]: 4 g of oral NTZ; healthy adults; cited from earlier work.

In the case of `COC(=O)CCC(=O)OC[C@H]1O[C@@H]([n+]2cccc(C(N)=O)c2)[C@H](O)[C@@H]1O` [MP-43, 3-Carboxamide-1-((2R,3R,4S,5R)-3,4-dihydroxy-5-(((4-methoxy-4-oxobutanoyl)oxy)methyl)tetrahydrofuran-2-yl)pyridin-1-ium Trifluoroacetate], the “% Cytoprotection” value was 5.7% in [1] and 6.3% in data set [3]. Moreover, the “% NAD^+ Repletion” value is 31.1% in data set [2] and 12.9% in data set [4].

Consider `NC(=O)c1ccc[n+]([C@@H]2O[C@H](CO)[C@@H](O)[C@H]2O)c1` [NR, nicotinamide riboside, reference compound], for which, in [4], the “increase of NAD^+ level” value came to 43%.

As for `NC(=O)c1ccc[n+]([C@@H]2O[C@H](COC(=O)CCC(=O)O)[C@@H](O)[C@H]2O)c1` [MP-42, 3-Carboxamide-1-((2R,3R,4S,5R)-5-(((3-carboxypropanoyl)oxy)methyl)-3,4-dihydroxytetrahydrofuran-2-yl)pyridin-1-ium Trifluoroacetate], the entries for the “% Cytoprotection” value in data set [1] and in [3] were 9.9% and 4.5%, respectively. The entries for the “% NAD^+ Repletion” value in data set [2] and in data set [4] were 23.7% and 8.2%, respectively.

With `O=C(c1cc(Cc2n[nH]c(=O)c3ccccc23)ccc1F)N1CCN(C(=O)C2CC2)CC1` [olaparib, reference compound], the “increase of NAD^+ level” value in [4] is on record as 8%.

On to `NC(=O)C1=CN([C@@H]2O[C@H](CO)[C@@H](O)[C@H]2O)C=CC1` [NRH], for which the “concentration of glucose in the media” value in data set [5] (50 μM DNP, 100 μM NRH or both, 4 hr, versus untreated, FIG. 29) is “did not significantly affect”. The “NAD^+ level, NRH alone versus NR alone” value in data set [6] is listed as “markedly higher NAD^+ level than NR alone”. Also, the “concentration of lactate released into the media” value in data set [7] (50 μM DNP, 100 μM NRH or both, 4 hr, versus untreated, FIG. 28) is given as “did not significantly affect”.

Turning to `O=[N+]([O-])c1ccc(O)c([N+](=O)[O-])c1` [DNP, 2,4-Dinitrophenol], in data set [8], the “activity of lactate dehydrogenase (LDH) released into the media” value is given as “markedly increased”. In addition, in data set [5], the “concentration of glucose in the media” value was “significantly reduced”. The “dose causing excessive systemic uncoupling, fold greater than minimum effective dose for reducing body weight” value in [9] is 3-10 fold. For the same molecule, the “concentration of lactate released into the media” value in data set [7] is listed as “markedly increased”. In addition, in data set [10], the “% viability of HepG2 cells” value is given as “significantly reduced”.

As for `CC(=O)Oc1ccccc1C(=O)Nc1ncc([N+](=O)[O-])s1` [NTZ, nitazoxanide], the adverse effect result in [11] was “does not cause any significant adverse effect”.
